row,Compound,logP
1,CSc1nc(N)nc(C(Cl)(Cl)Cl)n1,3.12
2,Cc1nc(N)nc(C(Cl)(Cl)Cl)n1,1.77
3,Nc1nc(N)nc(C(Cl)(Cl)Cl)n1,1.24
4,COc1nc(N)nc(C(Cl)(Cl)Cl)n1,2.39
5,CCCNc1nc(C)nc(C(Cl)(Cl)Cl)n1,3.29
6,ClC(Cl)(Cl)c1nc(C(Cl)(Cl)Cl)nc(C(Cl)(Cl)Cl)n1,3.75
7,O=C1C2=C(CCCC2)C(=O)N1c1ccc(Cl)cc1,3.26
8,Cc1nc(NCc2ccccc2)nc(C(Cl)(Cl)Cl)n1,3.86
9,O=C1OC(=Nc2ccc(Cl)cc2)C2=C1CCCC2,3.81
10,Cc1nc(Nc2ccccc2)nc(C(Cl)(Cl)Cl)n1,3.41

# Next, values leading:
row,logP,Compound
1,4.39,ClC(Cl)(Cl)c1nc(Nc2ccccc2)nc(C(Cl)(Cl)Cl)n1
2,4.94,CN(C)c1nc(C(Cl)(Cl)Cl)nc(C(Cl)(Cl)Cl)n1
3,2.39,CNc1nc(C)nc(C(Cl)(Cl)Cl)n1
4,3.23,CNc1nc(C(Cl)(Cl)Cl)nc(C(Cl)(Cl)Cl)n1
5,3.78,Cc1nc(N(C)C)nc(C(Cl)(Cl)Cl)n1
6,4.1,Cc1nc(C(Cl)(Cl)Cl)nc(C(Cl)(Cl)Cl)n1
7,4.09,CCCNc1nc(C(Cl)(Cl)Cl)nc(C(Cl)(Cl)Cl)n1
8,2.48,Nc1nc(C(Cl)(Cl)Cl)nc(C(Cl)(Cl)Cl)n1
9,4.42,CSc1nc(C(Cl)(Cl)Cl)nc(C(Cl)(Cl)Cl)n1
10,3.64,COc1nc(C(Cl)(Cl)Cl)nc(C(Cl)(Cl)Cl)n1
11,4.93,ClC(Cl)(Cl)c1nc(NCc2ccccc2)nc(C(Cl)(Cl)Cl)n1
